Legend:
[1] = target: T1, WT nNOSoxy (oxygenase domain of rat neuronal nitric oxide synthase) (Rattus norvegicus, UniProt P29476, V567S); test: biochemical; parameters: UV-visible perturbation difference spectroscopy; displacement of heme-bound imidazole (0.5 mM), apparent dissociation constant; details: read-out: Val567Ser
T1 construct: gene Nos1; oxygenase domain, aa 1-720 plus 6-histidine tag, plasmid pCWnNOSoxy, E. coli BL21(DE3), HisTrap purification
Experimental: (§1) The native enzymes (~1–2 μM) were incubated 5 min at 4 °C in 50 mM HEPES buffer pH 7.4 in the presence of 0.5 mM ImH and then equally divided into reference and sample cuvettes. After 2 min at room temperature, increasing concentrations of the studied compounds were added to the sample cuvette and equivalent amounts of buffer were added to the reference cuvette. Apparent dissociation constants (K s,app) were estimated by plotting the difference in absorbance between peak (~395 nm) and valley (~430 nm) as a function of added substrate or substrate analogue concentrations and fitting the data to a hyperbolic one‐site binding model by Origin (OriginLab Corp., Northampton, MA, USA). […] Effective K s values can be deduced from the K s,app and the K s values for ImH, assuming simple competitive binding equilibrium 37.

[2] = target: T2, WT nNOSoxy (oxygenase domain of rat neuronal nitric oxide synthase) (Rattus norvegicus, UniProt P29476, V567T); test: biochemical; parameters: UV-visible perturbation difference spectroscopy; displacement of heme-bound imidazole (0.5 mM), apparent dissociation constant; details: read-out: Val567Thr
T2 construct: gene Nos1; oxygenase domain, aa 1-720 plus 6-histidine tag, plasmid pCWnNOSoxy, E. coli BL21(DE3), HisTrap purification
Experimental: as §1

[3] = target: T3, WT nNOSoxy (oxygenase domain of rat neuronal nitric oxide synthase) (Rattus norvegicus, UniProt P29476, V567R); test: biochemical; parameters: UV-visible perturbation difference spectroscopy; displacement of heme-bound imidazole (0.5 mM), apparent dissociation constant; details: read-out: Val567Arg
T3 construct: gene Nos1; oxygenase domain, aa 1-720 plus 6-histidine tag, plasmid pCWnNOSoxy, E. coli BL21(DE3), HisTrap purification
Experimental: as §1

[4] = target: T4, WT nNOSoxy (oxygenase domain of rat neuronal nitric oxide synthase) (Rattus norvegicus, UniProt P29476, V567Y); test: biochemical; parameters: UV-visible perturbation difference spectroscopy; displacement of heme-bound imidazole (0.5 mM), apparent dissociation constant; details: read-out: Val567Tyr
T4 construct: gene Nos1; oxygenase domain, aa 1-720 plus 6-histidine tag, plasmid pCWnNOSoxy, E. coli BL21(DE3), HisTrap purification
Experimental: as §1

[5] = target: T5, WT nNOSoxy (oxygenase domain of rat neuronal nitric oxide synthase) (Rattus norvegicus, UniProt P29476, V567F); test: biochemical; parameters: UV-visible perturbation difference spectroscopy; displacement of heme-bound imidazole (0.5 mM), apparent dissociation constant; details: read-out: Val567Phe
T5 construct: gene Nos1; oxygenase domain, aa 1-720 plus 6-histidine tag, plasmid pCWnNOSoxy, E. coli BL21(DE3), HisTrap purification
Experimental: as §1

[6] = target: T6, WT nNOSoxy (oxygenase domain of rat neuronal nitric oxide synthase) (Rattus norvegicus, UniProt P29476); test: UV-visible difference spectroscopy, heme-Fe(III)-imidazole complex formation; type: binding
T6 construct: gene Nos1; oxygenase domain, aa 1-720 plus 6-histidine tag, plasmid pCWnNOSoxy, E. coli BL21(DE3), HisTrap purification
Source text: (§2) UV-visible difference spectroscopy, heme-Fe(III)-imidazole complex formation on WT nNOSoxy (oxygenase domain of rat neuronal nitric oxide synthase)

[7] = target: T1, WT nNOSoxy (oxygenase domain of rat neuronal nitric oxide synthase); test: as above; type: binding; details: read-out: Val567Ser
Source text: as §2

[8] = target: T3, WT nNOSoxy (oxygenase domain of rat neuronal nitric oxide synthase); test: as above; type: binding; details: read-out: Val567Arg
Source text: as §2

[9] = target: T4, WT nNOSoxy (oxygenase domain of rat neuronal nitric oxide synthase); test: as above; type: binding; details: read-out: Val567Tyr
Source text: as §2

[10] = target: T5, WT nNOSoxy (oxygenase domain of rat neuronal nitric oxide synthase); test: as above; type: binding; details: read-out: Val567Phe
Source text: as §2

[11] = target: T2, WT nNOSoxy (oxygenase domain of rat neuronal nitric oxide synthase); test: as above; type: binding; details: read-out: Val567Thr

T4 sequence (P29476 1-720 V567Y): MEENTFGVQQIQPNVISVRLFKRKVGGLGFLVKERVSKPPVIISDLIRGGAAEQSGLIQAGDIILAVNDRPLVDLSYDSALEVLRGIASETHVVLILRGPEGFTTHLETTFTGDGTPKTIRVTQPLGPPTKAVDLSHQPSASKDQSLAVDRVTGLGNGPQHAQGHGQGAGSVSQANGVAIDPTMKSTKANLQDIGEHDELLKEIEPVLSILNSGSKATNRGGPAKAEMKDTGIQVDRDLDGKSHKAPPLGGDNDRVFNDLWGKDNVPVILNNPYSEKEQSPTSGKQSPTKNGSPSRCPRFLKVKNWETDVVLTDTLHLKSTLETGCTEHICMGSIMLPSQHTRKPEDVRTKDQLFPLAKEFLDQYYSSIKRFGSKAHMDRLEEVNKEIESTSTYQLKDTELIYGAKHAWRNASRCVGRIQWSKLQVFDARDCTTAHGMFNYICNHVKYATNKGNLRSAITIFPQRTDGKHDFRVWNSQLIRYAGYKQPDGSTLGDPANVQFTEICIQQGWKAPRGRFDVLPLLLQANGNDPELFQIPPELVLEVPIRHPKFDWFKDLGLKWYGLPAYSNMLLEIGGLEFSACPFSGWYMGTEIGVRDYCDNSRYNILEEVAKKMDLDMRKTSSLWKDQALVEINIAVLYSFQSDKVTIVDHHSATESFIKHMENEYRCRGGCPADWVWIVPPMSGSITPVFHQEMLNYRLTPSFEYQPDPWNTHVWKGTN
T5 sequence (P29476 1-720 V567F): as the sequence (P29476 1-720 V567Y) above, with Y567F counted along it
T1 sequence (P29476 1-720 V567S): as the sequence (P29476 1-720 V567Y) above, with Y567S counted along it
T3 sequence (P29476 1-720 V567R): as the sequence (P29476 1-720 V567Y) above, with Y567R counted along it
T2 sequence (P29476 1-720 V567T): as the sequence (P29476 1-720 V567Y) above, with Y567T counted along it
T6 sequence (P29476 1-720): as the sequence (P29476 1-720 V567Y) above, with Y567V counted along it

Structure (SMILES)	Kd [1]	Kd [2]	Kd [4]	further results
N=C(N)NC1CC1 [compound 8, Cyclopropyl-guanidine]	21.6 ± 3.9 µM	20.2 ± 3.9 µM	24.3 ± 1.4 µM	Kd [3]: 237 ± 85 µM
c1c[nH]cn1 [imidazole]				Kd [6]: 76.3 ± 5.4 µM; Kd [7]: 140 ± 16 µM; Kd [8]: 262 ± 77 µM; Kd [9]: 11.1 ± 3 µM; Kd [10]: 152 ± 26 µM; Kd [11]: 93 ± 24.7 µM
COc1ccc(NC(=N)N)cc1 [compound 12, 4-methoxyphenyl-guanidine]	7.8 ± 1.2 µM	189 ± 63 µM		
N=C(N)Nc1ccc(F)cc1 [compound 11, 4-fluorophenyl-guanidine]	2.2 ± 0.4 µM			Kd [5]: 165 ± 87 µM
CCCNC(=N)N [compound 5, n-Propyl-guanidine]	122 ± 8 µM	267 ± 63 µM	295 ± 16 µM	

Further lines, with some results ahead:

Kd [1]	Kd [2]	Kd [4]	Structure (SMILES)	further results
34.2 ± 4.2 µM	99 ± 19 µM	147 ± 43 µM	CC(C)NC(=N)N [compound 9, Isopropyl-guanidine]	Kd [3]: > 500 µM; Kd [5]: 293 ± 34 µM
322 ± 31 µM	23 ± 5.6 µM		CCCCNC(=N)N [compound 6, n-Butyl-guanidine]	
